Assays:
Type in all cases: cell-based, Escherichia coli
EKO-35-Pore = experiment: MIC susceptibility profiling, porinated strain; conditions: for Fold changes of MICs: EKO-35-Pore compared to EKO-35-Pore (reference); for Minimum inhibitory concentration (MIC), Pore EKO-35: Table 10, with pore; for Minimum inhibitory concentration (MIC), Pore EKO-35 / Minimum inhibitory concentration, EKO-35-Pore: technical duplicate; for Minimum inhibitory concentration, EKO-35-Pore: Table 14A, porinated
In short: (§1)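 MIC values come from background-corrected OD600 readings (pre-incubation OD subtracted) after 18 h at 37 °C and 900 rpm in MHB II. Compounds were tested in duplicate as 2-fold dilutions. The inoculum came from 18 h LB cultures adjusted to OD600 ~1.0 and diluted 1/2000, and the pore-bearing strains were vancomycin-checked beforehand.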

E. coli ΔtolC = experiment: microbe, parasite or virus in culture; conditions: technical duplicate; for Minimum inhibitory concentration (MIC), ΔtolC: Table 10, without pore; for Minimum Inhibitory Concentration, ΔtolC: Table 13A, non-porinated
In short: (§2)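 Each compound was serially diluted twofold, in duplicate, and challenged with a 1/2000 dilution of PBS-washed cells (OD600 ~1.0) in MHB II. Plates were shaken at 37 °C for 18 h and OD600 was read at room temperature, with the baseline subtracted.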

E. coli EKO-35 = experiment: microbe, parasite or virus in culture; conditions: for Fold change of MICs: EKO-35 compared to EKO-35 (reference); for Minimum inhibitory concentration (MIC), EKO-35: Table 10, without pore; for Minimum inhibitory concentration (MIC), EKO-35 / Minimum Inhibitory Concentration, EKO-35: technical duplicate; for Minimum Inhibitory Concentration, EKO-35: Table 13A, non-porinated
In short: as §2

[1] = tested on: wild-type E. coli K-12 str. BW25113; experiment: microbe, parasite or virus in culture; conditions: technical duplicate; for Minimum inhibitory concentration (MIC), K-12: Table 10, without pore; for Minimum Inhibitory Concentration, K-12: Table 13A, non-porinated
In short: as §2

[2] = tested on: EKO-35 araC::acrBD408A Pore; experiment: MIC susceptibility profiling, porinated efflux platform; conditions: for Fold changes of MICs: EKO-35 araC::acrBD408A Pore compared to EKO-35-Pore; for Minimum inhibitory concentration: EKO-35 araC::acrBD408A Pore, technical duplicate
In short: as §1

EKO-35 araC::acrD Pore = experiment: as above; conditions: for Fold changes of MICs: EKO-35 araC::acrD Pore compared to EKO-35-Pore; for Minimum inhibitory concentration, EKO-35 araC::acrD Pore: Table 14A, porinated, technical duplicate
In short: as §1

EKO-35 araC::emrKY Pore = experiment: as above; conditions: for Fold changes of MICs: EKO-35 araC::emrKY Pore compared to EKO-35-Pore; for Minimum inhibitory concentration: EKO-35 araC::emrKY Pore, technical duplicate
In short: as §1

EKO-35 araC::emrAB = experiment: MIC susceptibility profiling, efflux platform; conditions: for Fold change of MICs: EKO-35 araC::emrAB compared to EKO-35; for Minimum Inhibitory Concentration, EKO-35 araC::emrAB: Table 13B, non-porinated, technical duplicate
In short: as §2

[3] = tested on: EKO-35 araC::mexCD (MexCD from P. aeruginosa); experiment: MIC susceptibility profiling, efflux platform; conditions: for Fold change of MICs: EKO-35 araC::mexCD compared to EKO-35; for Minimum Inhibitory Concentration, EKO-35 araC::mexCD: Table 13B, non-porinated, technical duplicate
In short: as §2

EKO-35 araC::acrBD408A = experiment: MIC susceptibility profiling, efflux platform; conditions: for Fold change of MICs: EKO-35 araC::acrBD408A compared to EKO-35; for Minimum Inhibitory Concentration, EKO-35 araC::acrBD408A: Table 13B, non-porinated, technical duplicate
In short: as §2

EKO-35 araC::acrD = experiment: MIC susceptibility profiling, efflux platform; conditions: for Fold change of MICs: EKO-35 araC::acrD compared to EKO-35; for Minimum Inhibitory Concentration, EKO-35 araC::acrD: Table 13A, non-porinated, technical duplicate
In short: as §2

EKO-35 araC::macAB = experiment: MIC susceptibility profiling, efflux platform; conditions: for Fold change of MICs: EKO-35 araC::macAB compared to EKO-35; for Minimum Inhibitory Concentration, EKO-35 araC::macAB: Table 13B, non-porinated, technical duplicate
In short: as §2

EKO-35 araC::mdtBC = experiment: MIC susceptibility profiling, efflux platform; conditions: for Fold change of MICs: EKO-35 araC::mdtBC compared to EKO-35; for Minimum Inhibitory Concentration, EKO-35 araC::mdtBC: Table 13B, non-porinated, technical duplicate
In short: as §2

EKO-35 araC::mdtEF = experiment: MIC susceptibility profiling, efflux platform; conditions: for Fold change of MICs: EKO-35 araC::mdtEF compared to EKO-35; for Minimum Inhibitory Concentration, EKO-35 araC::mdtEF: Table 13A, non-porinated, technical duplicate
In short: as §2

EKO-35 araC::acrEF = experiment: MIC susceptibility profiling, efflux platform; conditions: for Fold change of MICs: EKO-35 araC::acrEF compared to EKO-35; for Minimum Inhibitory Concentration, EKO-35 araC::acrEF: Table 13A, non-porinated, technical duplicate
In short: as §2

EKO-35 araC::acrB = experiment: MIC susceptibility profiling, efflux platform; conditions: for Fold change of MICs: EKO-35 araC::acrB compared to EKO-35; for Minimum Inhibitory Concentration, EKO-35 araC::acrB: Table 13A, non-porinated, technical duplicate
In short: as §2

EKO-35 araC::emrKY = experiment: MIC susceptibility profiling, efflux platform; conditions: for Fold change of MICs: EKO-35 araC::emrKY compared to EKO-35; for Minimum Inhibitory Concentration, EKO-35 araC::emrKY: Table 13B, non-porinated, technical duplicate
In short: as §2

wild-type (WT) K-12-Pore = experiment: microbe, parasite or virus in culture; conditions: technical duplicate; for Minimum inhibitory concentration (MIC), Pore K-12: Table 10, with pore; for Minimum inhibitory concentration, K-12 (WT)-Pore: Table 14A, porinated
In short: as §1

ΔtolC-Pore = experiment: microbe, parasite or virus in culture; conditions: technical duplicate; for Minimum inhibitory concentration (MIC), Pore ΔtolC: Table 10, with pore; for Minimum inhibitory concentration, ΔtolC-Pore: Table 14A, porinated
In short: as §1

SMILES	Fold changes of MICs (EKO-35-Pore)	Minimum inhibitory concentration (MIC), Pore EKO-35 (EKO-35-Pore)	Minimum inhibitory concentration, EKO-35-Pore (EKO-35-Pore)	Minimum inhibitory concentration (MIC), ΔtolC (E. coli ΔtolC)	Minimum Inhibitory Concentration, ΔtolC (E. coli ΔtolC)	Fold change of MICs (E. coli EKO-35)	Minimum inhibitory concentration (MIC), EKO-35 (E. coli EKO-35)	Minimum Inhibitory Concentration, EKO-35 (E. coli EKO-35)	Minimum inhibitory concentration (MIC), K-12 [1]	Minimum Inhibitory Concentration, K-12 [1]	Fold changes of MICs [2]	Minimum inhibitory concentration [2]	Fold changes of MICs (EKO-35 araC::acrD Pore)	Minimum inhibitory concentration, EKO-35 araC::acrD Pore (EKO-35 araC::acrD Pore)	Fold changes of MICs (EKO-35 araC::emrKY Pore)	Minimum inhibitory concentration (EKO-35 araC::emrKY Pore)	Fold change of MICs (EKO-35 araC::emrAB)	Minimum Inhibitory Concentration, EKO-35 araC::emrAB (EKO-35 araC::emrAB)	Fold change of MICs [3]	Minimum Inhibitory Concentration, EKO-35 araC::mexCD [3]	further results
O=C(Nc1cccc(Oc2c(F)c(F)c(F)c(F)c2F)c1)c1ccccc1 [compound 1]	1 fold	320 µg/mL	320 µg/mL	5 µg/mL	5 µg/mL	1 fold	320 µg/mL	320 µg/mL	320 µg/mL	320 µg/mL	1 fold	320 µg/mL	1 fold	320 µg/mL	1 fold	320 µg/mL	1 fold	320 µg/mL	1 fold	320 µg/mL	Fold change of MICs (EKO-35 araC::acrBD408A): 1 fold; Minimum Inhibitory Concentration, EKO-35 araC::acrBD408A (EKO-35 araC::acrBD408A): 320 µg/mL; Fold change of MICs (EKO-35 araC::acrD): 1 fold; Minimum Inhibitory Concentration, EKO-35 araC::acrD (EKO-35 araC::acrD): 320 µg/mL; Fold change of MICs (EKO-35 araC::macAB): 1 fold; Minimum Inhibitory Concentration, EKO-35 araC::macAB (EKO-35 araC::macAB): 320 µg/mL; Fold change of MICs (EKO-35 araC::mdtBC): 1 fold; Minimum Inhibitory Concentration, EKO-35 araC::mdtBC (EKO-35 araC::mdtBC): 320 µg/mL; Fold change of MICs (EKO-35 araC::mdtEF): 1 fold; Minimum Inhibitory Concentration, EKO-35 araC::mdtEF (EKO-35 araC::mdtEF): 320 µg/mL; Fold change of MICs (EKO-35 araC::acrEF): 1 fold; Minimum Inhibitory Concentration, EKO-35 araC::acrEF (EKO-35 araC::acrEF): 320 µg/mL; Fold change of MICs (EKO-35 araC::acrB): 1 fold; Minimum Inhibitory Concentration, EKO-35 araC::acrB (EKO-35 araC::acrB): 320 µg/mL; Fold change of MICs (EKO-35 araC::emrKY): 1 fold; Minimum Inhibitory Concentration, EKO-35 araC::emrKY (EKO-35 araC::emrKY): 320 µg/mL; Minimum inhibitory concentration (MIC), Pore K-12 (wild-type (WT) K-12-Pore): 320 µg/mL; Minimum inhibitory concentration, K-12 (WT)-Pore (wild-type (WT) K-12-Pore): 320 µg/mL; Minimum inhibitory concentration (MIC), Pore ΔtolC (ΔtolC-Pore): 10 µg/mL; Minimum inhibitory concentration, ΔtolC-Pore (ΔtolC-Pore): 10 µg/mL
N#Cc1ccc(-c2c(NC(=O)C(Cl)Cl)oc(-c3cccs3)c2C#N)cc1 [compound 2]	1 fold	320 µg/mL	320 µg/mL	1.25 µg/mL	1.25 µg/mL	1 fold	320 µg/mL	320 µg/mL	320 µg/mL	320 µg/mL	1 fold	320 µg/mL	1 fold	320 µg/mL	1 fold	320 µg/mL	1 fold	320 µg/mL	1 fold	320 µg/mL	Fold change of MICs (EKO-35 araC::acrBD408A): 1 fold; Minimum Inhibitory Concentration, EKO-35 araC::acrBD408A (EKO-35 araC::acrBD408A): 320 µg/mL; Fold change of MICs (EKO-35 araC::acrD): 1 fold; Minimum Inhibitory Concentration, EKO-35 araC::acrD (EKO-35 araC::acrD): 320 µg/mL; Fold change of MICs (EKO-35 araC::macAB): 1 fold; Minimum Inhibitory Concentration, EKO-35 araC::macAB (EKO-35 araC::macAB): 320 µg/mL; Fold change of MICs (EKO-35 araC::mdtBC): 1 fold; Minimum Inhibitory Concentration, EKO-35 araC::mdtBC (EKO-35 araC::mdtBC): 320 µg/mL; Fold change of MICs (EKO-35 araC::mdtEF): 1 fold; Minimum Inhibitory Concentration, EKO-35 araC::mdtEF (EKO-35 araC::mdtEF): 320 µg/mL; Fold change of MICs (EKO-35 araC::acrEF): 1 fold; Minimum Inhibitory Concentration, EKO-35 araC::acrEF (EKO-35 araC::acrEF): 320 µg/mL; Fold change of MICs (EKO-35 araC::acrB): 1 fold; Minimum Inhibitory Concentration, EKO-35 araC::acrB (EKO-35 araC::acrB): 320 µg/mL; Fold change of MICs (EKO-35 araC::emrKY): 1 fold; Minimum Inhibitory Concentration, EKO-35 araC::emrKY (EKO-35 araC::emrKY): 320 µg/mL; Minimum inhibitory concentration (MIC), Pore K-12 (wild-type (WT) K-12-Pore): 320 µg/mL; Minimum inhibitory concentration, K-12 (WT)-Pore (wild-type (WT) K-12-Pore): 320 µg/mL; Minimum inhibitory concentration (MIC), Pore ΔtolC (ΔtolC-Pore): 1.25 µg/mL; Minimum inhibitory concentration, ΔtolC-Pore (ΔtolC-Pore): 1.25 µg/mL

— patent publication US20230407243A1, “GENETIC PLATFORM TO INVESTIGATE THE FUNCTIONS OF BACTERIAL DRUG EFFLUX PUMPS” (priority 2022, published 2023)
